{"source": "ChEMBL document CHEMBL3580649", "about": "“Cardamonin induces autophagy and an antiproliferative effect through JNK activation in human colorectal carcinoma HCT116 cells” (2015)", "key": {"HCT-116 [1]": {"test_system": "HCT-116", "assay": "Induction of cell cycle arrest in human HCT116 cells assessed as cells accumulation at S phase at 10 uM after 24 hrs by propidium iodide staining-based flow cytometry (reference value: 48.8 +/- 1.5%)", "type": "functional"}, "HCT-116 [2]": {"test_system": "HCT-116", "assay": "Induction of cell cycle arrest in human HCT116 cells assessed as cells accumulation at G2/M phase at 10 uM after 24 hrs by propidium iodide staining-based flow cytometry (reference value: 19.2 +/- 0.3%)", "type": "functional"}, "HCT-116 [3]": {"test_system": "HCT-116", "assay": "Induction of autophagy in human HCT116 cells assessed as autophagic vacuoles at 10 uM after 24 hrs by monodansylcadaverine staining assay", "type": "functional, cell-based"}, "HCT-116 [4]": {"test_system": "HCT-116", "assay": "Induction of autophagy in human HCT116 cells assessed as autophagic vacuoles at 10 uM after 24 hrs by monodansylcadaverine staining assay in presence of Bafilomycin A1", "type": "functional, cell-based"}, "HCT-116 [5]": {"test_system": "HCT-116", "assay": "Induction of autophagy in human HCT116 cells assessed as increase in LC3-II accumulation at 10 uM upto 20 hrs by immunoblot analysis", "type": "functional, cell-based"}, "HCT-116 [6]": {"test_system": "HCT-116", "assay": "Induction of autophagy in human HCT116 cells assessed as increase in LC3-II accumulation at 10 uM upto 20 hrs by Confocal imaging analysis", "type": "functional, cell-based"}, "HCT-116 [7]": {"test_system": "HCT-116", "assay": "Induction of autophagy in human HCT116 cells assessed as increase in LC3-II dots per cell at 10 uM upto 20 hrs by Confocal imaging analysis relative to vehicle treated control (reference value: 0.8/cell)", "type": "functional"}, "HCT-116 [8]": {"test_system": "HCT-116", "assay": "Induction of autophagy in human HCT116 cells transfected with shRNA against p53 assessed as LC3-II accumulation at 10 uM after 24 hrs by Western blotting analysis", "type": "functional, cell-based"}, "HCT-116 [9]": {"test_system": "HCT-116", "assay": "Induction of autophagy in human HCT116 cells assessed as LC3-II accumulation at 10 uM upto 20 hrs by Western blotting analysis in presence of 30 uM PFT-alpha p53 antagonist", "type": "functional, cell-based"}, "HCT-116 [10]": {"test_system": "HCT-116", "assay": "Antiproliferative activity against human HCT116 cells transfected with shRNA against p53 at 10 uM after 24 hrs by CCK8 assay relative to control", "type": "functional, cell-based"}, "HCT-116 [11]": {"test_system": "HCT-116", "assay": "Antiproliferative activity against human HCT116 cells transfected with shRNA against p53 at 10 uM after 24 hrs by CCK8 assay in presence of exogenous p53 gene", "type": "functional, cell-based"}, "[12]": {"molecular_target": "Mitogen-activated protein kinase 8 (Homo sapiens) (UniProt P45983)", "sequence (P45983 whole entry)": "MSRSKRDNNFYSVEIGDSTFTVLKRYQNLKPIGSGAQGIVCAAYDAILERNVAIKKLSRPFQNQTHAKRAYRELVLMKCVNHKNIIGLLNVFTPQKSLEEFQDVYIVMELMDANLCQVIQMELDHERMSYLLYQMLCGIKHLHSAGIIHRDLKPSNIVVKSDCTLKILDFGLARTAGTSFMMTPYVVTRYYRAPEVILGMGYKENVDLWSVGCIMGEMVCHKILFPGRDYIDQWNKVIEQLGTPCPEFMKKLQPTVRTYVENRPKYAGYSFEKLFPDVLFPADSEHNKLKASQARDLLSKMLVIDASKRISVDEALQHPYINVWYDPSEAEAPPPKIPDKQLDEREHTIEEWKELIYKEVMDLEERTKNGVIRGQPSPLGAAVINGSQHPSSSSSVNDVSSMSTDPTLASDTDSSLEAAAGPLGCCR", "assay": "Activation of JNK1 in human HCT116 cells assessed as phosphorylation at 10 uM after 24 hrs by Western blotting analysis", "type": "cell-based", "details": "HCT-116"}, "[13]": {"molecular_target": "Mitogen-activated protein kinase 9 (Homo sapiens) (UniProt P45984)", "sequence (P45984 whole entry, looked up)": "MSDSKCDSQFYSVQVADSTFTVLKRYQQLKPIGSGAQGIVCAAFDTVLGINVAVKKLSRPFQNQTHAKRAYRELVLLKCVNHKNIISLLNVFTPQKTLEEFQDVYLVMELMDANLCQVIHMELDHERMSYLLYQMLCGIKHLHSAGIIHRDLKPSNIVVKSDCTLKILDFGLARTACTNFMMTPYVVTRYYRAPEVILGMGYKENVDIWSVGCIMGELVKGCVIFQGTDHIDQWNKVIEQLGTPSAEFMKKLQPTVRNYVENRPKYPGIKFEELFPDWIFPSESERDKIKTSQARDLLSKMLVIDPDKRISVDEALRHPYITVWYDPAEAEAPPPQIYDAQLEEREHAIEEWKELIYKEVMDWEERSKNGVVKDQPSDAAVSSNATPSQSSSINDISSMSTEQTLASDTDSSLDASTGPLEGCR", "assay": "Activation of JNK2 in human HCT116 cells assessed as phosphorylation at 10 uM after 24 hrs by Western blotting analysis", "type": "cell-based", "details": "HCT-116"}, "[14]": {"molecular_target": "Mitogen-activated protein kinase 8 (Homo sapiens) (UniProt P45983)", "assay": "Activation of JNK1 in human HCT116 cells transfected with shRNA against p53 assessed as phosphorylation at 10 uM after 24 hrs by Western blotting analysis", "type": "cell-based", "details": "HCT-116"}, "[15]": {"molecular_target": "Mitogen-activated protein kinase 9 (Homo sapiens) (UniProt P45984)", "assay": "Activation of JNK2 in human HCT116 cells transfected with shRNA against p53 assessed as phosphorylation at 10 uM after 24 hrs by Western blotting analysis", "type": "cell-based", "details": "HCT-116"}, "[16]": {"molecular_target": "Mitogen-activated protein kinase 8 (Homo sapiens) (UniProt P45983)", "assay": "Activation of JNK1 in human HCT116 cells assessed as phosphorylation at 10 uM after 24 hrs by Western blotting analysis in presence of 30 uM PFT-alpha p53 antagonist", "type": "cell-based", "details": "HCT-116"}, "[17]": {"molecular_target": "Mitogen-activated protein kinase 9 (Homo sapiens) (UniProt P45984)", "assay": "Activation of JNK2 in human HCT116 cells assessed as phosphorylation at 10 uM after 24 hrs by Western blotting analysis in presence of 30 uM PFT-alpha p53 antagonist", "type": "cell-based", "details": "HCT-116"}, "HCT-116 [18]": {"test_system": "HCT-116", "assay": "Induction of autophagy in human HCT116 cells assessed as LC3-II accumulation at 10 uM upto 20 hrs by Western blotting analysis in presence of 20 uM SP600125 reversible JNK inhibitor", "type": "functional, cell-based"}, "HCT-116 [19]": {"test_system": "HCT-116", "assay": "Antiproliferative activity against human HCT116 cells at 10 uM upto 20 hrs by CCK8 assay relative to control in presence of 20 uM SP600125 reversible JNK inhibitor", "type": "functional, cell-based"}, "HCT-116 [20]": {"test_system": "HCT-116", "assay": "Antiproliferative activity against human HCT116 cells assessed as cell viability after 24 hrs by WST8 assay", "type": "functional, cell-based"}, "HCT-116 [21]": {"test_system": "HCT-116", "assay": "Antiproliferative activity against human HCT116 cells assessed as cell viability at 10 uM after 24 hrs by WST8 assay relative to vehicle treated control", "type": "functional", "details": "HCT-116, 24 h"}, "HCT-116 [22]": {"test_system": "HCT-116", "assay": "Induction of cell cycle arrest in human HCT116 cells assessed as cells accumulation at G0/G1 phase at 10 uM after 24 hrs by propidium iodide staining-based flow cytometry (reference value: 31.9 +/- 2.3%)", "type": "functional"}}, "note": "Calls of active or inactive are those of the source. The calls are words filed in the database; no cut-off is given here.", "data": [{"smiles": "COc1cc(O)cc(O)c1C(=O)/C=C/c1ccccc1", "note": "[CARDAMOMIN]", "values": [{"measurement": "Activity", "setting": "HCT-116 [1]", "result": 46.6, "unit": "%"}, {"measurement": "Activity", "setting": "HCT-116 [2]", "result": 25, "unit": "%"}, {"measurement": "Activity", "setting": "HCT-116 [3]", "result": "Active"}, {"measurement": "Activity", "setting": "HCT-116 [4]", "result": "inactive"}, {"measurement": "Activity", "setting": "HCT-116 [5]", "result": "Active"}, {"measurement": "Activity", "setting": "HCT-116 [6]", "result": "Active"}, {"measurement": "Activity", "setting": "HCT-116 [7]", "result": 3.4}, {"measurement": "Activity", "setting": "HCT-116 [8]", "result": "inactive"}, {"measurement": "Activity", "setting": "HCT-116 [9]", "result": "inactive"}, {"measurement": "inhibition", "setting": "HCT-116 [10]", "result": "inactive"}, {"measurement": "inhibition", "setting": "HCT-116 [11]", "result": "Active"}, {"measurement": "Activity", "setting": "[12]", "result": "Active"}, {"measurement": "Activity", "setting": "[13]", "result": "Active"}, {"measurement": "Activity", "setting": "[14]", "result": "inactive"}, {"measurement": "Activity", "setting": "[15]", "result": "inactive"}, {"measurement": "Activity", "setting": "[16]", "result": "inactive"}, {"measurement": "Activity", "setting": "[17]", "result": "inactive"}, {"measurement": "Activity", "setting": "HCT-116 [18]", "result": "inactive"}, {"measurement": "Activity", "setting": "HCT-116 [19]", "result": "inactive"}, {"measurement": "inhibition", "setting": "HCT-116 [20]", "result": "Dose-dependent effect"}, {"measurement": "inhibition at 10 µM", "setting": "HCT-116 [21]", "result": 37, "unit": "%"}, {"measurement": "Activity", "setting": "HCT-116 [22]", "result": 28.4, "unit": "%"}]}]}
